Reference: patent publication US20100323990A1, “SHIP 1 MODULATOR PRODRUGS” (THE UNIVERSITY OF BRITISH COLUMBIA, priority 2006, published 2010)

Legend:
[1] = tested on: J774.1a macrophage cells; test: Macrophage TNF-α production (Assay 2); format: cell-based; details: 10 μg/mL test compound, 100 ng/mL LPS, supernatants after 2 hr and 5 hr; further: key: a ‘+’ indicates a positive result for desired activity; a ‘−’ indicates a negative result for desired activity
Method in brief: (§1)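 J774.1a macrophages pretreated 40 min with 10 μg/mL compound, then LPS (100 ng/mL for TNF-α); TNF-α by ELISA in supernatants at 2 and 5 h, NO by Griess at 24 h. Mast cells IgE-loaded (anti-DNP), compound 30 min, DNP-HSA challenge; calcium flux by fura-2 spectrofluorometry, signalling by immunoblot.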

[2] = tested on: J774.1a macrophage cells; test: Macrophage TNF-α NO assay (Assay 3), Griess reagent; format: cell-based; details: 10 μg/ml test compound, LPS, supernatants after 24 hr; further: key: a ‘+’ indicates a positive result for desired activity; a ‘−’ indicates a negative result for desired activity
Method in brief: as §1

[3] = tested on: plasma TNFα; test: Mouse endotoxemia model (Assay 6), plasma TNFα by ELISA; format: in vivo, mice; details: for Assay 6: Mouse endotoxemia model, desired activity: oral, 30 min prior to IP 2 mg/kg LPS, plasma TNFα 2 hrs later
Protocol: Assay 1) In vitro testing in a SHIP enzyme assay. Test compounds were dissolved in a suitable solvent (e.g. EtOH, DMSO and others) and diluted into aqueous buffer (20 mM Tris HCl, pH 7.5 and 10 mM MgCl2). SHIP enzyme assays were performed in 96-well microtitre plates with 10 ng of enzyme/well in a total volume of 25 μL of 20 mM Tris HCl, pH 7.5 and 10 mM MgCl2. SHIP enzyme was incubated with test extracts (provided in solvent) or vehicle for 15 min at 23° C. before the addition of 100 μM inositol-1,3,4,5-tetrakisphosphate (Echelon Biosciences Inc, Salt Lake City, Utah). After 20 min at 37° C. and the amount of inorganic phosphate released assessed by the addition of Malachite Green reagent and absorbance measurement at 650 nm. Assay 2) Macrophage TNF-α production. J774.1a macrophage cells were treated with 10 μg/mL of test compound dissolved in solvent (e.g. cyclodextran) for 40 minutes prior to the addition of 100 ng/mL LPS. Culture supernatants were collected after 2 hr and 5 hr for TNF-α determination by ELISA. Assay 3) Macrophage TNF-α NO assay. J774.1a macrophage cells were treated with 10 μg/ml of test compound dissolved in solvent for 40 minutes prior to the addition of LPS. Culture supernatants were collected after 24 hr. for determination of NO concentration using the Griess reagent. Assay 4) Stimulation of mast cells by FcεRI crosslinking. Mast cells were pre-loaded overnight in BMMC medium lacking IL-3 with 0.1 μg/ml anti-DNP IgE (SPE-7, Sigma, Oakville, Ont). For calcium flux measurements, cells were incubated with 2 μM fura 2-acetoxymethyl ester (Molecular Probes, Eugene, Oreg.) in Tyrode's buffer at 23° C. for 45 min. Cells were then washed and incubated in the presence of the test compound 30 min prior to stimulation with the indicated concentration of DNP-human serum albumin (DNP-HSA). Calcium influx was monitored by spectrofluorometry as described previously. For analysis of intracellular signaling, cells were pre-loaded with anti-DNP IgE as above, pre-treated with the test compound for 30 min at 37° C. and stimulated with 20 ng/ml DNP-HSA for 5 min. Total cell lysates were then prepared and analyzed for phospho-PKB, phospho-p38^MAPK, phospho-MAPK, Grb-2 (Cell Signalling, Mississauga, Ont) and SHIP^6 by immunoblot analysis. Assay 5) Mouse acute cutaneous anaphylaxis model. 6-8 week old CD1 mice (University of British Columbia Animal Facility, Vancouver, BC) were sensitized to the hapten DNP by cutaneous application of 25 μL of 0.5% dinitrofluorobenzene (DNFB) (Sigma, Oakville, Ont) in acetone to the shaved abdomen of mice for two consecutive days. 24 hrs later, test substances (dissolved in 10 μL of 1:2 DMSO:MeOH) were painted on the right ear while the left ear received vehicle control. 30 min after drug application, DNFB was applied to both ears to induce mast cell degranulation. A 6 mm punch was taken from the ear and immediately frozen on dry ice for subsequent determination of neutrophil myeloperoxidase (MPO) activity. Assay 6) Mouse endotoxemia model. […] The ability of SHIP activators to reduce tumor cell survival was assessed in MM cell lines treated with the test compound. The lines OPM1, OPM2, MM.1S and RPMI 8226 were plated at a density of 1×10^5 cells/mL in 200 μL of medium with various concentrations of the test compound, and viable cell numbers were determined on day 3 and day 5 by trypan blue exclusion. […]

[4] = tested on: luciferase expressing OPM2 cells; test: In vivo Multiple Myeloma (MM) assay (Assay 8), OPM2 xenograft; design: species or system mice; details: 50 mg/kg every 3 days, subcutaneous oil depot
Protocol: Assay 8) In vivo Multiple Myeloma (MM) assay. Mice were inoculated with at two sites each with 3×10^6 luciferase expressing OPM2 cells suspended in 50 μL of growth medium and 50 μL of Matrigel basement membrane matrix (Becton Dickenson; Bedford, Mass.). Tumors were injected subcutaneously in the upper and lower flanks of the mice and allowed to establish for 2 weeks. After 2 weeks, a test compound or control vehicle was administered in a subcutaneous oil depot at a dose of 50 mg/kg every 3 days.
Tumors were measured using bioluminescence imaging on the Xenogen IVIS 200. Mice received intra-peritoneal injections of 200 μL of D-luciferin at 3.75 mg/mL in sterile PBS. Mice were then anesthetized with isofluorane and imaged 15 minutes post-injection of luciferin. Quantification of tumor size was performed using the Living Image™ software.
MM Xenograft murine model. Mice were inoculated with at two sites each with 3×10^6 luciferase expresseing OPM2 cells suspended in 50 μL of growth medium and 50 μL of Matrigel basement membrane matrix (Becton Dickenson; Bedford, Mass.). Tumors were injected subcutaneously in the upper and lower flanks of the mice and allowed to establish for 2 weeks. […]
Tumors were measured using bioluminescence imaging on the Xenogen IVIS 200. […] Quantification of tumor size was performed using the Living Image™ software. […]

## Cc1cc(O)c(O)c2c1[C@]1(C)CCC3C(C)(C)CCC[C@]3(C)[C@H]1C2 (stereo partly drawn) [AQX-016A]
[1]
  Assay 2: Macrophage TNF-α production, desired activity: +
[2]
  Assay 3: Macrophage NO assay, desired activity: +
[3]
  Assay 6: Mouse endotoxemia model, desired activity: +
[4]
  Assay 8: In vivo Multiple Myeloma (MM) assay, desired activity: +

## Cc1cc(O)cc2c1[C@]1(C)CCC3C(C)(C)CCC[C@]3(C)[C@H]1C2 (stereo partly drawn) [Compound 100]
[1]
  Assay 2: Macrophage TNF-α production, desired activity: +
[2]
  Assay 3: Macrophage NO assay, desired activity: +
[3]; oral administration 30 min prior to LPS
  LPS-induced plasma/serum TNFα levels: efficiently inhibited
[3]
  Assay 6: Mouse endotoxemia model, desired activity: +
[4]
  Assay 8: In vivo Multiple Myeloma (MM) assay, desired activity: +
